# Assay results taken from patent US9253983B2, “Triazole compound and use thereof” (KUREHA CORPORATION, priority 2011, dated 2016).
# Columns and labels:
# Puccinia recondita = assay: Controlling effect on wheat brown rust (leaf rust) by foliage spray treatment (Tests 1 and 2); assay type: in vivo; conditions: foliage spray 0.8 mg/L, 1,000 L/ha, 11 days after inoculation
# Method: The wheat plants had been grown in square plastic pots (6 cm×6 cm). The suspensions were left to dry, and inoculated with spores of Puccinia recondita (adjusted at 200 spores per field of vision, Gramin S was added at 60 ppm) by spraying, and kept at 25° C. in a high humidity environment for 48 hours. After that, the plants were kept in a greenhouse. 11 days after the inoculation, the lesion degree of the wheat leaf rust was examined in accordance with the criteria shown in Table 4, and the protective values were calculated by the following equation. Protective value (%)=(1−Average lesion degree in sprayed plot/Average lesion degree in unsprayed plot)×100
# The wheat plants had been grown in square plastic pots (6 cm×6 cm). The leaves were air-dried, and inoculated with spores of Puccinia recondita (adjusted at 200 spores per field of vision, Gramin S was added at 60 ppm) by spraying, and kept at 25° C. in a high humidity environment for 48 hours. After that, the plants were kept in a greenhouse. 11 days after the inoculation, the lesion degree of the wheat leaf rust was examined, and the protective values were calculated as were in Experiment Example 2.
# Fusarium oxysporum = assay: Test 2 for antifungal effect, plate medium: F.c; assay type: cell-based; conditions: PDA plate medium
# Method: (§1) Compound (1-1b) or Compound (1-2b) was dissolved in dimethyl sulfoxide, and the resulting solution was added to a PDA medium (potato dextrose-agar medium) at about 60° C. The medium and the solution were mixed thoroughly in a conical flask, poured into a petri dish, and allowed to solidify. In this way, a plate medium containing Compound (1-1b) or Compound (1-2b) at a certain concentration was prepared.
# (§2) Meanwhile, test microorganisms cultured on a plate medium in advance were cut out with the use of a cork borer 4 mm in diameter, and were inoculated onto the compound-containing plate medium. After the inoculation, the pathogens were cultured at their optimum growth temperatures (for example, refer to LIST OF CULTURES 1996 microorganisms 10th edition, Institute for Fermentation (foundation)) for 1 day to 7 days, and their growth was determined by measuring the diameter of their flora. The extent of growth of the pathogens on the compound-containing plate medium was compared with that of pathogens on a plate medium where no compound was added, and mycelial growth inhibition rate was calculated as in Experiment Example 10. Note that, in Experiment Example 11, controls used in the antifungal effect tests are Compound (1-1a) and Compound (1-2a) instead of Compound (1-1b) and Compound (1-2b), respectively.
# (§3) The results were rated on a 1-to-5 scale as in Experiment Example 10.
# wheat [1] = assay: Growth inhibition (adverse effects) of seed treatment on wheat seeds; assay type: in vivo; conditions: wheat, 20 days after sowing
# Method: A pot experiment was performed to evaluate the growth inhibition (adverse effects) caused by the seed treatment. Compound (1-1a) and Compound (1-2a), each of which was dissolved in DMSO to make up such a concentration that the seeds would be treated in treatment amount of 2 g to 200 g ai/100 kg seeds, were each applied to wheat seeds in a vial, and thereafter 8 wheat seeds were sowed in an 80-cm^2 pot. The pot was kept in a greenhouse with water supplied to its bottom. 20 days after the sowing, a growth measure of wheat was evaluated. A growth inhibition index was calculated based on the criteria shown by Table 10. In Table 10, a smaller growth inhibition index indicates a lesser adverse effect of growth inhibition caused by the treatment with the use of a plant disease controlling agent.
# Ustilago nuda = assay: Test 2 for antifungal effect, plate medium: U.n; assay type: cell-based; conditions: PDA plate medium
# Method: as §1, §2, §3
# Sclerotinia sclerotiorum = assay: Test 1 for antifungal effect, plate medium: S.s; assay type: cell-based; conditions: PDA plate medium
# Method: (§4) Compound (1-1a) or Compound (1-2a) was dissolved in dimethyl sulfoxide, and the resulting solution was added to a PDA medium (potato dextrose-agar medium) at about 60° C. The medium and the solution were mixed thoroughly in a conical flask, poured into a petri dish, and allowed to solidify. In this way, a plate medium containing Compound (1-1a) or Compound (1-2a) at a certain concentration was prepared.
# (§5) Meanwhile, test microorganisms cultured on a plate medium in advance were cut out with the use of a cork borer 4 mm in diameter, and were inoculated onto the compound-containing plate medium. After the inoculation, the microorganisms were cultured at their optimum growth temperatures (for example, refer to LIST OF CULTURES 1996 microorganisms 10th edition, Institute for Fermentation (foundation)) for 1 day to 7 days, and their growth was determined by measuring the diameter of their flora. The extent of growth of the microorganisms on the compound-containing plate medium was compared with that of microorganisms on a plate medium where no compound was added, and mycelial growth inhibition rate was calculated by the following equation: R=100(dc−dt)/dc where R is mycelial growth inhibition rate (%), dc is the flora diameter in untreated plate, and dt is the flora diameter in plate treated with the compound.
# (§6) A larger antifungal index indicates a better antifungal effect.
# Glomerella cingurata = assay: Test 1 for antifungal effect, plate medium: G.c; assay type: cell-based; conditions: PDA plate medium
# Method: as §4, §5, §6
# Pyrenophora graminea = assay: Test 2 for antifungal effect, plate medium: P.g; assay type: cell-based; conditions: PDA plate medium
# Method: as §1, §2, §3
# wheat [2] = assay: Necrosis (adverse effects) of seed treatment on wheat seeds; assay type: in vivo; conditions: 20 days after sowing
# Method: A pot experiment was performed to evaluate necrosis (adverse effects) caused by the seed treatment. Compound (1-1a) and Compound (1-2a), each which was dissolved in DMSO to make up such a concentration that the seeds would be treated in treatment amount of 2 g to 200 g ai/100 kg seeds, were each applied to wheat seeds in a vial, and thereafter 8 wheat seeds were sowed in an 80-cm^2 pot. The pot was kept in a greenhouse with water supplied to its bottom. 20 days after the sowing, an extent of necrosis (percentage of necrotic surface area) of wheat was evaluated. A necrosis index was derived from the percentage of the necrotic surface area, based on the criteria shown by Table 13. In Table 13, a smaller necrosis index indicates a lesser adverse effect of necrosis caused by the treatment with the use of a plant disease controlling agent.
# [3] = treatment amount 2 g ai/100 kg seeds
# [4] = treatment amount 20 g ai/100 kg seeds
# [5] = treatment amount 200 g ai/100 kg seeds
SMILES,Protective value (%) (Puccinia recondita),Antifungal index (mycelial growth inhibition rate) (Fusarium oxysporum; 0.04 mg/L),Antifungal index (mycelial growth inhibition rate) (Fusarium oxysporum; 0.08 mg/L),Antifungal index (mycelial growth inhibition rate) (Fusarium oxysporum; 0.16 mg/L),Antifungal index (mycelial growth inhibition rate) (Fusarium oxysporum; 0.31 mg/L),Antifungal index (mycelial growth inhibition rate) (Fusarium oxysporum; 0.63 mg/L),Antifungal index (mycelial growth inhibition rate) (Fusarium oxysporum; 1.25 mg/L),Growth inhibition index (wheat [1]; [3]),Growth inhibition index (wheat [1]; [4]),Growth inhibition index (wheat [1]; [5]),Antifungal index (mycelial growth inhibition rate) (Ustilago nuda; 0.04 mg/L),Antifungal index (mycelial growth inhibition rate) (Ustilago nuda; 0.08 mg/L),Antifungal index (mycelial growth inhibition rate) (Ustilago nuda; 0.16 mg/L),Antifungal index (mycelial growth inhibition rate) (Ustilago nuda; 0.31 mg/L),Antifungal index (mycelial growth inhibition rate) (Ustilago nuda; 0.63 mg/L),Antifungal index (mycelial growth inhibition rate) (Ustilago nuda; 1.25 mg/L),Antifungal index (mycelial growth inhibition rate) (Sclerotinia sclerotiorum; 0.16 mg/L),Antifungal index (mycelial growth inhibition rate) (Sclerotinia sclerotiorum; 0.31 mg/L),Antifungal index (mycelial growth inhibition rate) (Sclerotinia sclerotiorum; 0.63 mg/L),Antifungal index (mycelial growth inhibition rate) (Sclerotinia sclerotiorum; 1.25 mg/L),other results
"CC1(CCl)CCC(Cc2ccc(Cl)cc2)C1(O)Cn1cncn1 (single isomer, unassigned) [Compound (1-1a), (1,2-cis, 1,5-cis)-5-(4-chlorobenzyl)-2-chloromethyl-2-methyl-1-(1H-1,2,4-triazole-1-ylmethyl)cyclopentanol]",95%,1 (Less than 60%),3 (Less than 80% but not less than 70%),4 (Less than 90% but not less than 80%),4 (Less than 90% but not less than 80%),5 (90% or greater),5 (90% or greater),0 (50% or more),0 (50% or more),0 (50% or more),1 (Less than 60%),1 (Less than 60%),1 (Less than 60%),2 (Less than 70% but not less than 60%),3 (Less than 80% but not less than 70%),4 (Less than 90% but not less than 80%),5 (90% or greater),5 (90% or greater),5 (90% or greater),5 (90% or greater),Antifungal index (mycelial growth inhibition rate) (Sclerotinia sclerotiorum; 2.50 mg/L): 5 (90% or greater); Antifungal index (mycelial growth inhibition rate) (Glomerella cingurata; 0.16 mg/L): 5 (90% or greater); Antifungal index (mycelial growth inhibition rate) (Glomerella cingurata; 0.31 mg/L): 5 (90% or greater); Antifungal index (mycelial growth inhibition rate) (Glomerella cingurata; 0.63 mg/L): 5 (90% or greater); Antifungal index (mycelial growth inhibition rate) (Glomerella cingurata; 1.25 mg/L): 5 (90% or greater); Antifungal index (mycelial growth inhibition rate) (Glomerella cingurata; 2.50 mg/L): 5 (90% or greater); Antifungal index (mycelial growth inhibition rate) (Pyrenophora graminea; 0.04 mg/L): 2 (Less than 70% but not less than 60%); Antifungal index (mycelial growth inhibition rate) (Pyrenophora graminea; 0.08 mg/L): 3 (Less than 80% but not less than 70%); Antifungal index (mycelial growth inhibition rate) (Pyrenophora graminea; 0.16 mg/L): 4 (Less than 90% but not less than 80%); Antifungal index (mycelial growth inhibition rate) (Pyrenophora graminea; 0.31 mg/L): 5 (90% or greater); Antifungal index (mycelial growth inhibition rate) (Pyrenophora graminea; 0.63 mg/L): 5 (90% or greater); Antifungal index (mycelial growth inhibition rate) (Pyrenophora graminea; 1.25 mg/L): 5 (90% or greater); Necrosis index (wheat [2]; [3]): 0 (Less than 1%); Necrosis index (wheat [2]; [4]): 0 (Less than 1%); Necrosis index (wheat [2]; [5]): 0 (Less than 1%)
"CC1(CCl)CCC(Cc2ccc(Cl)cc2)C1(O)Cn1cncn1 (single isomer, unassigned) [Compound (1-1b), (1,2-cis, 1,5-cis)-5-(4-chlorobenzyl)-2-chloromethyl-2-methyl-1-(1H-1,2,4-triazole-1-ylmethyl)cyclopentanol]",29%,1 (Less than 60%),3 (Less than 80% but not less than 70%),4 (Less than 90% but not less than 80%),5 (90% or greater),5 (90% or greater),5 (90% or greater),0 (50% or more),4 (Less than 20% but 10% or more),4 (Less than 20% but 10% or more),1 (Less than 60%),1 (Less than 60%),2 (Less than 70% but not less than 60%),3 (Less than 80% but not less than 70%),4 (Less than 90% but not less than 80%),5 (90% or greater),3 (Less than 80% but not less than 70%),5 (90% or greater),5 (90% or greater),5 (90% or greater),Antifungal index (mycelial growth inhibition rate) (Sclerotinia sclerotiorum; 2.50 mg/L): 5 (90% or greater); Antifungal index (mycelial growth inhibition rate) (Glomerella cingurata; 0.16 mg/L): 2 (Less than 70% but not less than 60%); Antifungal index (mycelial growth inhibition rate) (Glomerella cingurata; 0.31 mg/L): 4 (Less than 90% but not less than 80%); Antifungal index (mycelial growth inhibition rate) (Glomerella cingurata; 0.63 mg/L): 5 (90% or greater); Antifungal index (mycelial growth inhibition rate) (Glomerella cingurata; 1.25 mg/L): 5 (90% or greater); Antifungal index (mycelial growth inhibition rate) (Glomerella cingurata; 2.50 mg/L): 5 (90% or greater); Antifungal index (mycelial growth inhibition rate) (Pyrenophora graminea; 0.04 mg/L): 3 (Less than 80% but not less than 70%); Antifungal index (mycelial growth inhibition rate) (Pyrenophora graminea; 0.08 mg/L): 4 (Less than 90% but not less than 80%); Antifungal index (mycelial growth inhibition rate) (Pyrenophora graminea; 0.16 mg/L): 5 (90% or greater); Antifungal index (mycelial growth inhibition rate) (Pyrenophora graminea; 0.31 mg/L): 5 (90% or greater); Antifungal index (mycelial growth inhibition rate) (Pyrenophora graminea; 0.63 mg/L): 5 (90% or greater); Antifungal index (mycelial growth inhibition rate) (Pyrenophora graminea; 1.25 mg/L): 5 (90% or greater); Necrosis index (wheat [2]; [3]): 0 (Less than 1%); Necrosis index (wheat [2]; [4]): 2 (Less than 20% but not less than 5%); Necrosis index (wheat [2]; [5]): 2 (Less than 20% but not less than 5%)
